In patent publication US9326539B2, “Compositions comprising dietary fat complexers and methods for their use” (Soho Flordis International Pty. Ltd., priority 2002, dated 2016):

Columns and labels:
[1] = volunteers fed high fat breakfast: serum triglyceride levels; format: in vivo, human
Experimental: To determine the effect of α-cyclodextrin on triglyceride levels, eight volunteers were fed on two consecutive days a two-egg cheese (54 g) omelet and a milkshake containing a total of 47 g of fat after an overnight fast. On the first day the meal also contained approximately 5 g of α-cyclodextrin. Blood samples (10 ml) from each volunteer taken via an in-dwelling venous catheter immediately prior the meal (zero-time) and at 1, 2 and 3 hours after the meal was consumed and were assayed for serum triglyceride levels. The zero-time sample were used as the baseline to calculate the percentage change in blood serum triglyceride levels of the human volunteers at one, two and three hours. FIG. 7 illustrates the data collected from the volunteers.
FIG. 7 also contains data from three of the volunteers who had partaken in an earlier two-hour study with a smaller meal (denoted “*”).

insulin and leptin = test: two additional volunteers: body weight, insulin and leptin levels (radioimmune assays); format: in vivo, human
Description: Blood samples were taken from the two additional subjects in Example 3 at various timepoints and assayed for insulin levels and leptin levels by the method of Linco Research (St. Charles, Mo.) using human insulin and leptin radioimmune assays.

[2] = human volunteer on high fat diet with α-cyclodextrin: weight loss and blood parameters; format: in vivo; settings: one volunteer; for HDL cholesterol: baseline 0.97; for Triglycerides: baseline 2.76; for Insulin Resistance: baseline 2.85; for Cholesterol: baseline 4.76
Experimental: The α-cyclodextrin was added to the subject's diet in a proportion of one gram Of α-cyclodextrin for every nine grams of fat that were estimated to be consumed by the subject. […] 200 days, approximately 6 months— By 6 months the subject's body weight was reduced by 32 pounds. In addition to the weight loss, within the first two weeks of the study, the subject's elevated blood pressure fell to the point where they were forced to reduce their prescribed beta-blacker by one-third. Their blood triglycerides were also assayed during this time and their blood serum triglyceride levels were decreased by 23% within the first month and 46% by the end of six months.

[3] = in vitro study of vegetable oil, water and cyclodextrin: band of wax-like complex; format: physicochemical; settings: vegetable oil 4 g, water 6 g, varying amounts of cyclodextrin (100-2,000 mg), centrifuged
Experimental: FIG. 9A-9C depicts the results of an in vitro study of vegetable oil (4 g), water (6 g) (with added food coloring for contrast) and varying amounts of (A) α-cyclodextrin (100-2,000 mg, right to left), (B) β-cyclodextrin or (C) γ-cyclodextrin. A band of “wax-like” material layered between the oil and aqueous phases is apparent in the tubes. […] Note the increasing size (right to left) of a white layer of un-reacted α-cyclodextrin in the bottom of the tubes. This material is displaced from solution by either the oil or the α-cyclodextrin-oil complex. These tubes were centrifuged in order to improve the definition of the layers. The “wax-like” complex is of such a consistency that all of the tubes except for the furthest two to the right can be inverted without leakage of the aqueous phase around the complex.
FIGS. 9A-9C depict the results of an in vitro study of vegetable oil (4 g), water (6 g) (with added food coloring for contrast) and varying amounts of (A) α-cyclodextrin (100-2,000 mg, right to left), (B) β-cyclodextrin or (C) γ-cyclodextrin. A band of “wax-like” material layered between the oil and aqueous phases is apparent in the tubes. […] Note the increasing size (right to left) of a white layer of un-reacted α-cyclodextrin in the bottom of the tubes. This material is displaced from solution by either the oil or the α-cyclodextrin-oil complex. These tubes were centrifuged in order to improve the definition of the layers. The “wax-like” complex is of such a consistency that all of the tubes in 9A except for the furthest two to the right can be inverted without leakage of the aqueous phase around the complex.
Thus one would not have expected α-cyclodextrin to complex triglyceride molecules because the molecules would not fit within the pore of the α α-cyclodextrin. […] The white substance in the bottom of the tubes is precipitated cyclodextrin.

[4] = Wistar rat feeding study: fecal fat content (total lipid of feces); format: in vivo, Wistar rats; settings: collected feces, final three days
Description: The rats were housed as pairs for five weeks prior to being placed in individual metabolic cages for the sixth week of the study. All of the rats' feces were collected during the final three days of the study. At the end of the sixth week of the study period the rats were sacrificed by decapitation after a brief exposure to carbon dioxide gas. Trunk blood and the livers were collected from each animal. The rest of the body was eviscerated and all visible fat from the internal cavity was collected and weighed. The carcass was frozen for body composition analysis at a later date.
Total lipid determinations were performed on the collected feces using standard techniques Folch et al. J Biol. Chem 226: 497-509 (1957) incorporated by reference. […] On average this increase was approximately 25%. […] The latter observation was confirmed by visual inspection of the feces.

[5] = two additional volunteers, about 2 g α-cyclodextrin per meal: cholesterol, LDL, cholesterol/HDL, triglycerides; format: in vivo, human
Experimental: α-cyclodextrin was also added to the diet of two additional volunteers. The α-cyclodextrin was added in a proportion such that each meal comprised about 2 g of α-cyclodextrin. Table 3 sets forth the effects of the α-cyclodextrin on reducing the levels of cholesterol, LDL, cholesterol/HDL ratio and serum triglycerides. It is of note that both of these volunteers, as well as the initial volunteer, had been and still were taking one of the statin pharmaceuticals for lowering their blood serum cholesterol. All three volunteers were taking different statins. In addition volunteer one was taking 3 g/d niacin which they reduced by 50% in the first two weeks of the study because of the unpleasant side effects of this medication.

[6] = volunteer one, 2.5 months, on statin and niacin
[7] = volunteer two, 6 months, on statin

SMILES: OC[C@H]1O[C@@H]2O[C@H]3[C@H](O)[C@@H](O)[C@@H](O[C@H]4[C@H](O)[C@@H](O)[C@@H](O[C@H]5[C@H](O)[C@@H](O)[C@@H](O[C@H]6[C@H](O)[C@@H](O)[C@@H](O[C@H]7[C@H](O)[C@@H](O)[C@@H](O[C@H]1[C@H](O)[C@H]2O)O[C@@H]7CO)O[C@@H]6CO)O[C@@H]5CO)O[C@@H]4CO)O[C@@H]3CO [α-cyclodextrin]
- increase in serum triglyceride levels after meal ([1]; eight volunteers, meal with 47 g fat and approximately 5 g α-cyclodextrin, 1, 2 and 3 hours, p<0.08): less
- change in triglyceride levels after meal ([1]; three volunteers, earlier two-hour study with smaller meal): less
- Leptin (insulin and leptin; Subject 1, 55 days on diet, day 0: 3.6): 2.9 ng/mL
- Insulin (insulin and leptin; Subject 1, 55 days on diet, day 0: 14): 13 uU/ml
- Body weight (insulin and leptin; Subject 1, 55 days on diet, day 0: 89.09): 85.45 kg
- Body weight (insulin and leptin; Subject 1, 55 days on diet, day 0: 196): 188 lb
- Leptin (insulin and leptin; Subject 1, 112 days on diet, day 0: 3.6): 1.6 ng/mL
- Insulin (insulin and leptin; Subject 1, 112 days on diet, day 0: 14): 8 uU/ml
- Body weight (insulin and leptin; Subject 1, 112 days on diet, day 0: 89.09): 81.82 kg
- Body weight (insulin and leptin; Subject 1, 112 days on diet, day 0: 196): 180 lb
- Body weight % decrease (insulin and leptin; Subject 1, day 0 to day 112): 5.0%
- Insulin % decrease (insulin and leptin; Subject 1, day 0 to day 112): 42.9%
- Leptin % decrease (insulin and leptin; Subject 1, day 0 to day 112): 55.6%
- Leptin (insulin and leptin; Subject 2, 28 days on diet, day 0: 6.1): 6.0 ng/mL
- Insulin (insulin and leptin; Subject 2, 28 days on diet, day 0: 26): 28 uU/ml
- Body weight (insulin and leptin; Subject 2, 28 days on diet, day 0: 105.45): 104.55 kg
- Body weight (insulin and leptin; Subject 2, 28 days on diet, day 0: 232): 230 lb
- Leptin (insulin and leptin; Subject 2, 62 days on diet, day 0: 6.1): 3.9 ng/mL
- Insulin (insulin and leptin; Subject 2, 62 days on diet, day 0: 26): 16 uU/ml
- Body weight (insulin and leptin; Subject 2, 62 days on diet, day 0: 105.45): 100.23 kg
- Body weight (insulin and leptin; Subject 2, 62 days on diet, day 0: 232): 220.5 lb
- Body weight % decrease (insulin and leptin; Subject 2, day 0 to day 62): 5.0%
- Insulin % decrease (insulin and leptin; Subject 2, day 0 to day 62): 38.5%
- Leptin % decrease (insulin and leptin; Subject 2, day 0 to day 62): 36%
- body weight reduction ([2]; initial weight 267 pounds, 1 g α-cyclodextrin per 9 g fat, by 6 months): 32 pounds
- Body Mass Index ([2]; 1 month): 39.17
- Hip ([2]; 1 month): 127 cm
- Waist ([2]; 1 month): 124 cm
- HDL cholesterol ([2]; 1 month): 1.00 mmol/L
- Triglycerides ([2]; 1 month): 2.13 mmol/L
- Insulin Resistance ([2]; 1 month): 2.13
- Cholesterol ([2]; 1 month): 4.76 mmol/L
- Body Mass Index ([2]; 6 months): 37.27
- Hip ([2]; 6 months): 117 cm
- Waist ([2]; 6 months): 117 cm
- HDL cholesterol ([2]; 6 months): 1.11 mmol/L
- Triglycerides ([2]; 6 months): 1.50 mmol/L
- Insulin Resistance ([2]; 6 months): 1.35
- Cholesterol ([2]; 6 months): 4.0 mmol/L
- decrease of blood serum triglyceride levels ([2]; by the end of six months): 46%
- decrease of blood serum triglyceride levels ([2]; within the first month): 23%
- elevated blood pressure ([2]; within the first two weeks): fell
- band of wax-like material (complexed fat) between oil and aqueous phases [3]: maximum in the tube labeled 10% (400 mg α-cyclodextrin/4 g oil)
- visual inspection of feces [4]: no indication of diarrhea
- Cholesterol (change) [5, 6]: −18.5%
- Cholesterol/HDL (change) [5, 6]: −16.1%
- LDL (change) [5, 6]: −25.6%
- TG (change) [5, 6]: −22.2%
- Cholesterol (change) [5, 7]: −10.2%
- Cholesterol/HDL (change) [5, 7]: −8.8%
- LDL (change) [5, 7]: −15.0
- TG (change) [5, 7]: −37.5%
